Data reported in patent US5508275A, “Lipid-selective antioxidants and their preparation and use” (Hoechst Aktiengesellschaft, priority 1990, dated 1996).

Legend:
[1] = system: thrombus formation in rats; experiment: Laser-induced thrombosis in rats in vivo (Method VIII); design: species or system rat; settings: 30 mg/kg oral, laser induction 60 min after administration
Procedure: The experimental procedure was carried out in every detail as described in U.S. Pat. No. 4,694,024. Laser induction took place 60 min after oral administration of the antioxidants.

[2] = system: proneness to thrombosis of hyperlipidemic infarct-sensitive rats; experiment: Long-term administration in the hyperlipidemic infarct-sensitive rat: laser-induced thrombosis test (Method XI); type: in vivo; settings: 50 mg/kg oral, after 9 days
Procedure: Male infarct-sensitive rats about 200 g in weight (Mollegaard, Ejby, Denmark) were treated orally once daily with 1 ml/100 g of body weight of a standard diet (100 g of cholic acid, 100 g of cholesterol, 30 g of propylthiouracil to 1 l of sesame oil). While no test substance was administered to the control group I (cf. the following Table), the standard diet in the pharmaceutical experiments II-IV additionally contained 50 mg/kg of body weight of the test substances indicated in the table below. After 9 days, the rats were examined, as described above, in the laser-induced thrombosis test, and the total cholesterol content of the serum was determined.

[3] = Inhibition of the oxidation of lipids: SA-PC in cyclohexane (Method IV); type: biochemical; settings: 37° C., absorption at 234 nm
Procedure: Oxidation of 1-stearoyl-2-arachidonoylphosphatidylcholine (SA-PC) in cyclohexane (37° C.). 100 mcl of a SA-PC solution (10 mg/ml of CHCl3) were evaporated by blowing (argon) and the residue was taken up in 1 ml of cyclohexane. After adding an amount of antioxidant which would also dissolve in olive oil (cf. Table 1), the absorption was measured at 234 nm (Perkin Elmer 5528 spektrophotometer, Uberlingan, FRG) and the solvent was then evaporated by blowing with air. After a fur%her 24 hours standing in an open vessel, the residue was again dissolved in i ml of cyclohexane and the absorption at 234 nm was measured as a measurement of the oxidized SA-PC.

[4] = Long-term administration in the hyperlipidemic infarct-sensitive rat: total serum cholesterol (Method XI); type: in vivo; settings: 50 mg/kg oral, after 9 days; control 286
Procedure: While no test substance was administered to the control group I (cf. the following Table), the standard diet in the pharmaceutical experiments II-IV additionally contained 50 mg/kg of body weight of the test substances indicated in the table below. After 9 days, the rats were examined, as described above, in the laser-induced thrombosis test, and the total cholesterol content of the serum was determined. […] Moreover, the substances according to the invention exerted an advantageous hypolipidemic effect.

[5] = Solubility in water and olive oil (Method III)
Procedure: a) Preparation of olive oil or aqueous solutions. 1 ml of olive oil or I ml of double-distilled water (or dilute NaOH pH=7.6) was added to 1 mg or 10 mg or 50 mg of the respective compound at 37° C. and it was checked whether a clear solution was obtained. The optionally centrifuged and decanted olive oil solutions were heated for 5 minutes using a Bunsen burner and the degree of browning of the olive oil was determined. […] Samples having poor protective action are given a (*) in the table (see below).

[6] = Use as an additive in frying fat: color change of butter (Method II); settings: 1% (weight/weight) in butter
Procedure: Use as an additive in frying fat: Samples of commercially available German non-blended butter were melted and in each case 1% (weight/weight) of BHT (=butylated hydroxytoluene) or 2,6-di-tert.-butyl-4-(7-nonynoyl)-phenol [=compound according to Example 17] or ethyl 2-(3,5-di-tert.-butyl-4-hydroxybenzyl)-3-oxo-docosanoate [=compound according to Example 18] or N-octadecyl-DL-α-lipoic acid amide [=compound according to Example 52] was added and the mixture was used in the customary manner as frying fat. […] The better protective action of the […] probably comes about as a result of their lipophilic side chains and, therefore, improved lipophilic interaction. The advantageous action of N-octadecyl-DL-α-lipoic acid amide is particularly surprising, although this preparation has no recognizable antioxidative component.

[7] = Antioxidative radical scavenger properties by the diphenylpicrylhydrazine (DPPH) method (Method I); type: biochemical; settings: absolute ethanol
Procedure: Antioxidative radical scavenger properties by the diphenylpicrylhydrazine (DPPH) method: The determination was carried out spectrophotometrically (PMQ4 from Zeiss, Oberkochen, FRG) by the method described in Smith and Reeves, Biochemical Pharmacology 36 (1987) pp. 1457-1460. The measurement is the rate constant determined graphically (concentration versus conversion rate) in a known manner, measured in absolute ethanol.

[8] = olive oil, organic solvent or mixture

Compound: CCCCCCCCCCCCCCCCCCNC(=O)CCCCC(S)CCS (racemic) [Example 49]
- Reduction of thrombus formation [1]: 20%
- Reduction in proneness to thrombosis vs. control (%) [2]: 34%
- prevention of the oxidation of SA-PC, reduced dithiol vs. corresponding oxidized dithio compounds [3]: possible to prevent the oxidation of SA-PC Just as effectively
- Total cholesterol [4]: 259 mg/dL
- solubility [5, 8]: > 10000 µg/mL
- solubility ([5]; water): < 100 µg/mL

Compound: CCCCCCCCCCCCCCCCCCNC(=O)CCCCC1CCSS1 (racemic) [Example 52, N-octadecyl-DL-α-lipoic acid amide]
- Reduction of thrombus formation [1]: 14%
- prevention of the oxidation of SA-PC, reduced dithiol vs. corresponding oxidized dithio compounds [3]: possible to prevent the oxidation of SA-PC Just as effectively
- color change of frying fat after the frying procedure [6]: substantially lower color change
- solubility [5, 8]: > 10000 µg/mL
- solubility ([5]; water): < 100 µg/mL

Compound: O=C1O[C@H]([C@@H](O)CO)C(O)=C1O [Ascorbic acid]
- Reaction with DPPH (rate constant) [7]: 2.99

Compound: Cc1c(C)c2c(c(C)c1O)CCC(C)(C(=O)NCCCNC(=O)CC[C@@H](C)[C@H]1CC[C@H]3[C@@H]4CC[C@@H]5C[C@H](O)CC[C@]5(C)[C@H]4C[C@H](O)[C@]13C)O2 (stereo partly shown) [Example 2]
- Reduction of thrombus formation [1]: 14%
- Reduction in proneness to thrombosis vs. control (%) [2]: 50%
- Total cholesterol [4]: 270 mg/dL
- solubility [5, 8]: > 10000 µg/mL
- solubility ([5]; water): > 100 µg/mL

Compound: CCCCCCCCCCCCCCCCCCOC(=O)CCCCC1CCSS1 (stereo not shown) [Example 51]
- prevention of the oxidation of SA-PC, reduced dithiol vs. corresponding oxidized dithio compounds [3]: possible to prevent the oxidation of SA-PC Just as effectively
- solubility [5, 8]: > 50000 µg/mL
- solubility ([5]; water): < 100 µg/mL

Compound: Vitamin E [reference compound]
- Reduction of thrombus formation [1]: 5%
- Reduction in proneness to thrombosis vs. control (%) [2]: 26%
- Total cholesterol [4]: 278 mg/dL
- Solubility, Olive oil ([5]; olive oil): > 10000 µg/mL
- Solubility, Water ([5]; water): < 100 µg/mL
